# Experimental data: patent US20200323833A1, “HYDROPHOBIC ACID ADDITION SALTS” (Theracaine LLC, priority 2017, published 2020)
# Where a name gives a salt, the structure may show the parent alone.
# What was measured:
# [1] = Pharmacokinetics of dry powder administered subcutaneously via dorsal incision (Example 5); assay type: in vivo, Sprague Dawley rats; conditions: dry powder 230, via dorsal incision, bupivacaine salt 149 vs lidocaine salt 226 mg/kg
# Protocol: Terminal collections were performed via vena cava.
# The test articles were drug compositions designated as Test Articles A and B, which were administered as a single subcutaneous dose via dorsal incision to female CD (Sprague Dawley) rats.
# (§1) Ten (10) female, jugular vein catheterized (JVC) CD rats initially were assigned to two dose groups consisting of five animals per group.
# (§2) Each test article was provided as a powder in an individual vial.
# [2] = test system: female Sprague Dawley (CD) rats; conditions: rat, in vivo, sc
# Protocol: (§3) Clinical observations were performed daily. […] Other characteristics observed included appearance of skin and fur, appearance of eyes and mucous membranes, urine and fecal output, and changes in locomotor behavior. The times of observation were approximately the same each day, and the date of each observation was recorded.
# Animals were euthanized at the end of the study via carbon dioxide inhalation (CO2) followed by thoracotomy. Gross necropsy of the dose sites were performed and they were collected for histopathology. Photographs were taken for any observation of tissue or reaction to treatment. Carcasses were discarded without further examination.
# Twenty (20) female, jugular vein catheterized (JVC) Sprague Dawley (CD) rats initially were assigned to four dose groups consisting of eight (Test Articles A and B) or two (Test Articles B and C) animals per group. The animals received a single subcutaneous dose of the test article delivered to the dorsal subcutaneum of the animals via a dorsal skin incision.
# Test articles were provided as a powder in individual vials (Test Articles A and B), or as a solution (Test Articles C and D). On the day of testing, each animal's dose was individually calculated, weighed or measured, and recorded. […]
# [3] = test system: female Sprague-Dawley rats; conditions: rat, in vivo, sc
# Protocol: as §3
# The vehicle was a hyaluronic acid vehicle. The animals received a single subcutaneous dose of the test article or vehicle delivered to the dorsal area of the animals.
# In addition, dose sites were exposed for gross evaluation of residual test articles and local response to the injected materials.
# [4] = test system: female CD (Sprague Dawley) rats; conditions: rat, in vivo
# Protocol: Clinical observations were performed daily.
# as §1, §2
Cmax compared to the lidocaine particles [1],duration of release compared to the lidocaine particles ([1]; listed as bupivacaine particles),duration of release compared to the lidocaine particles ([1]; listed as bupivaciane particles),Structure (SMILES),vascularization surrounding the incision sites on the subcutaneous skin layers [2],clinical observations [3],tolerability of single subcutaneous dose administered through a dorsal incision [4]
lower,longer,significantly longer,"CCCCN1CCCCC1C(=O)Nc1c(C)cccc1C (stereo not drawn) [Test Article B, Bupivacaine tridecafluorohexane-sulfonate salt 230]",–,–,–
–,–,–,CCN(CC)CC(=O)Nc1c(C)cccc1C.O=S(=O)(O)C(F)(F)C(F)(F)C(F)(F)C(F)(F)C(F)(F)C(F)(F)C(F)(F)C(F)(F)F [Test Article B],slight to moderate,slightly dehydrated and hypoactive,tolerated
